Experimental data reported in paper PMC11303713, “Allosteric inhibition of CFTR gating by CFTRinh-172 binding in the pore” (Nature Communications, 2024).
Where “and” joins values, the source holds several entries; their conditions need not be identical. Equal entries are not always repeated. Where two headings read alike, the source gives them in different places.

How the values were obtained:
Test in all cases: Inside-out patch-clamp inhibition of CFTR current by Inh-172
Type in all cases: cell-based
human WT-CFTR = molecular target: T1, human WT-CFTR (Homo sapiens, UniProt P13569); conditions: for inhibition at 0.05 µM: 50 nM Inh-172; for inhibition at 0.1 µM: 100 nM Inh-172; for inhibition at 1 µM: 1000 nM Inh-172
T1 construct: the native wild-type CFTR construct without any deletion or mutation; expressed in transfected cells; host or cells: CHO cells, pcDNA plasmid
T1 sequence (P13569 whole entry): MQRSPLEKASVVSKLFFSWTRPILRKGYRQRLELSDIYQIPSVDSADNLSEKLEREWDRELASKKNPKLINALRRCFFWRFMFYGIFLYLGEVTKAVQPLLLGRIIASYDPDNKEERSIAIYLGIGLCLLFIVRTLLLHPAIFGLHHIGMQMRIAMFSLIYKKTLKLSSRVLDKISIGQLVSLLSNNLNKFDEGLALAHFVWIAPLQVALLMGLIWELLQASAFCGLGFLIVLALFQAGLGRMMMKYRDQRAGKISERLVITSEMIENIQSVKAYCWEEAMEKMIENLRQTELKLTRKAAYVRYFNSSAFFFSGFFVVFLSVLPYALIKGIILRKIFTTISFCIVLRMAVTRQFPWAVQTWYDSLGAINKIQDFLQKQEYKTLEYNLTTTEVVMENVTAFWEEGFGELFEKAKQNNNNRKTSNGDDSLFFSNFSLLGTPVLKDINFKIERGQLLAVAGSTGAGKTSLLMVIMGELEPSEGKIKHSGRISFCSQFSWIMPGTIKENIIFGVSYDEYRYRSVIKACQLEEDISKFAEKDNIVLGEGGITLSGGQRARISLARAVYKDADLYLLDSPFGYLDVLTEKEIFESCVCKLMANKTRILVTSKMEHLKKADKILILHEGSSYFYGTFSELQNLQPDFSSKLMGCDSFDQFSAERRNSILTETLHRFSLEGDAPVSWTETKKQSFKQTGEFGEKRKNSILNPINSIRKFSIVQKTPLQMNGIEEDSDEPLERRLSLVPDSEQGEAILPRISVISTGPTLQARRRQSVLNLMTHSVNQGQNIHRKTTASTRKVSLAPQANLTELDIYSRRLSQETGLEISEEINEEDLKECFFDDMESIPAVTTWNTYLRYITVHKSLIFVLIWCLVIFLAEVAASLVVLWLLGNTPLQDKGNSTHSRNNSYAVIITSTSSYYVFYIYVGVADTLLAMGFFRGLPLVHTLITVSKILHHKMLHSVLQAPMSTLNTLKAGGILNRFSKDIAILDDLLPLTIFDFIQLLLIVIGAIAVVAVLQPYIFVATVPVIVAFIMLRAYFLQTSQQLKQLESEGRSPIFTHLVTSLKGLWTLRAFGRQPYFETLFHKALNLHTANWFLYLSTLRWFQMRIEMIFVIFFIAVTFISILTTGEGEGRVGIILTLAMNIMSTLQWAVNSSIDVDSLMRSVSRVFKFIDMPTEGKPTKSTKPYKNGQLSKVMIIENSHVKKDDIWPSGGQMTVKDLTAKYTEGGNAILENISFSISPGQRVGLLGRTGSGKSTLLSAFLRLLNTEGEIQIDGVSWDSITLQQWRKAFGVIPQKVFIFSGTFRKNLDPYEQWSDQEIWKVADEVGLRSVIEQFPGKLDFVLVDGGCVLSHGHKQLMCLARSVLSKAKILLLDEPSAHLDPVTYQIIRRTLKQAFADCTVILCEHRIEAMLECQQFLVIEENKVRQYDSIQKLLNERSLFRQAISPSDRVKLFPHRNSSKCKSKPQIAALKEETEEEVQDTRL

T1142I-CFTR = molecular target: T2, T1142I-CFTR (Homo sapiens, UniProt P13569, T1142I); conditions: for inhibition at 0.1 µM: 100 nM Inh-172; for inhibition at 0.5 µM: 500 nM Inh-172; for inhibition at 1 µM: 1000 nM Inh-172; for inhibition at 5 µM: 5000 nM Inh-172; for inhibition at 10 µM: 10000 nM Inh-172
T2 construct: expressed in transfected cells; host or cells: CHO cells, pcDNA plasmid
T2 sequence (P13569 whole entry T1142I): as the sequence (P13569 whole entry) above, with T1142I counted along it

pig WT-CFTR = molecular target: T3, pig WT-CFTR (Sus scrofa, UniProt Q6PQZ2)
T3 construct: expressed in transfected cells; host or cells: CHO cells, pcDNA plasmid
T3 sequence (Q6PQZ2 whole entry): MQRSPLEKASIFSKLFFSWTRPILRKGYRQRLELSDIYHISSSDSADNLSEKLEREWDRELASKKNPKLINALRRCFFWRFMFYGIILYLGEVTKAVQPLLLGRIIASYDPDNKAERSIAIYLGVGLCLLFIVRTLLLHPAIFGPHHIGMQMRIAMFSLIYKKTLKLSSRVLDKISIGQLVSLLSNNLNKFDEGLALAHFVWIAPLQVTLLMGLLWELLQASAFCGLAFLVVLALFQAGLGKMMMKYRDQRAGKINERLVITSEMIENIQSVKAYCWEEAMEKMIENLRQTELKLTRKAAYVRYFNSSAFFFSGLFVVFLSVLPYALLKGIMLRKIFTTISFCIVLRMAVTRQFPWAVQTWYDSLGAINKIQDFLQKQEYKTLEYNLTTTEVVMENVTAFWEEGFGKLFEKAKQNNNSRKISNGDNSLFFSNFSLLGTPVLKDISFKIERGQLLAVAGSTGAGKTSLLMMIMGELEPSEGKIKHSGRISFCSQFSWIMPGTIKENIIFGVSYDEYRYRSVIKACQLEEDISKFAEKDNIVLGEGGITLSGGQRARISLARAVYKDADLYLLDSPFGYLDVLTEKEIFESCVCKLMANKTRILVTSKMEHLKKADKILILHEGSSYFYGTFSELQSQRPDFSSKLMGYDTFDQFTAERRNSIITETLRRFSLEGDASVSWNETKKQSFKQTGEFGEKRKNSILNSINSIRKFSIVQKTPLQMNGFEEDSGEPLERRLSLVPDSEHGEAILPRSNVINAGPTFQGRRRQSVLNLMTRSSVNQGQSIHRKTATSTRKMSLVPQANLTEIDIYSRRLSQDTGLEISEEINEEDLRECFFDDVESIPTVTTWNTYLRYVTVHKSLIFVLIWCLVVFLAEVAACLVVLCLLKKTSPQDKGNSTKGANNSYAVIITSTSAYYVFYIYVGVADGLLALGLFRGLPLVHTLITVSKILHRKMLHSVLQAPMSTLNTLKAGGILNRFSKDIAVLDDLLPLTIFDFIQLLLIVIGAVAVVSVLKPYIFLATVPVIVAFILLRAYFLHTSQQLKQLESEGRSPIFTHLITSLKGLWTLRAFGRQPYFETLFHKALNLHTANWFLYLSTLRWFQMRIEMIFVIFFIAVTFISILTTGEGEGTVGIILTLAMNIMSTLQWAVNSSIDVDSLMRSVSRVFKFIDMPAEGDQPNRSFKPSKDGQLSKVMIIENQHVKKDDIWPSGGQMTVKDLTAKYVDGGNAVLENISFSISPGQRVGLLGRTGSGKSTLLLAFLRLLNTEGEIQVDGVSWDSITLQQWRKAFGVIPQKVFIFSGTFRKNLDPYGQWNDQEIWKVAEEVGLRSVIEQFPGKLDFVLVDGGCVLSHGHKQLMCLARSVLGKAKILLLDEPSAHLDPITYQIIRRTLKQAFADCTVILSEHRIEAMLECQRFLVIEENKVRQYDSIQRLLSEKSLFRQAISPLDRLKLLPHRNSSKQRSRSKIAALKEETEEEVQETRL

K95A-CFTR = molecular target: T4, K95A-CFTR (Homo sapiens, UniProt P13569, K95A)
T4 construct: expressed in transfected cells; host or cells: CHO cells, pcDNA plasmid
T4 sequence (P13569 whole entry K95A): as the sequence (P13569 whole entry) above, with K95A counted along it

M348K-CFTR = molecular target: T5, M348K-CFTR (Homo sapiens, UniProt P13569, M348K)
T5 construct: expressed in transfected cells; host or cells: CHO cells, pcDNA plasmid
T5 sequence (P13569 whole entry M348K): as the sequence (P13569 whole entry) above, with M348K counted along it

[1] = read-out: percent inhibition of current, Mean
[2] = read-out: percent inhibition of current, individual cell
[3] = 500 nM Inh-172, read-out: percent inhibition of current, Mean
[4] = 500 nM Inh-172, read-out: percent inhibition of current, individual cell
[5] = 10000 nM Inh-172, read-out: percent inhibition of current, individual cell
[6] = 100 nM Inh-172, read-out: percent inhibition of current, Mean
[7] = 1000 nM Inh-172, read-out: percent inhibition of current, Mean
[8] = 5000 nM Inh-172, read-out: percent inhibition of current, Mean
[9] = 5000 nM Inh-172, read-out: percent inhibition of current, individual cell
[10] = 10000 nM Inh-172, read-out: percent inhibition of current, Mean
[11] = 1000 nM Inh-172, read-out: percent inhibition of current, individual cell

O=C(O)c1ccc(/C=C2\SC(=S)N(c3cccc(C(F)(F)F)c3)C2=O)cc1 [Inh-172, CFTRinh-172]
inhibition at 0.025 µM (human WT-CFTR; 25 nM Inh-172, read-out: percent inhibition of current, Mean): 27.2%
inhibition at 0.05 µM (human WT-CFTR; [1]): 33.5%
inhibition at 0.05 µM (human WT-CFTR; [2]): 28%
inhibition at 0.1 µM (human WT-CFTR; [1]): 60.2%
inhibition at 0.1 µM (human WT-CFTR; [2]): 53%
inhibition at 0.5 µM (human WT-CFTR; 0.5 µM Inh-172, read-out: WT-CFTR current inhibited): 80%
inhibition at 0.5 µM (human WT-CFTR; [3]): 81%
inhibition at 0.5 µM (human WT-CFTR; [4]): 75%
inhibition at 1 µM (human WT-CFTR; [1]): 91.4%
inhibition at 1 µM (human WT-CFTR; [2]): 88%
inhibition at 10 µM (human WT-CFTR; [5]): 89%
Hill Coefficient (human WT-CFTR; Human WT): 0.88 ± 0.09
Hill Coefficient (human WT-CFTR; Human WT + 200 nM VX-770): 1.07 ± 0.10
IC50 (human WT-CFTR; Human WT + 200 nM VX-770): 250 ± 20 nM
Hill Coefficient (human WT-CFTR; Human WT + 1 µM VX-770): 0.98 ± 0.02
IC50 (human WT-CFTR; Human WT + 1 µM VX-770): 420 ± 10 nM
IC50 (human WT-CFTR; Human WT, inside-out patch, -30 mV, 2 mM ATP, Hill fit): 80 ± 10 nM
IC50 (human WT-CFTR; human CFTR, value of earlier manuscript version quoted in peer review file): 83 nM
inhibition at 0.1 µM (T1142I-CFTR; [1]): 7.2%
inhibition at 0.1 µM (T1142I-CFTR; [2]): 5%
inhibition at 0.5 µM (T1142I-CFTR; [1]): 22.5%
inhibition at 0.5 µM (T1142I-CFTR; [2]): 22%
inhibition at 1 µM (T1142I-CFTR; [1]): 39.3%
inhibition at 1 µM (T1142I-CFTR; [2]): 38%
inhibition at 5 µM (T1142I-CFTR; [1]): 78.3%
inhibition at 5 µM (T1142I-CFTR; [2]): 78%
inhibition at 10 µM (T1142I-CFTR; [1]): 90.7%
inhibition at 10 µM (T1142I-CFTR; [2]): 90%
Hill Coefficient (T1142I-CFTR; T1142I): 1.12 ± 0.05
IC50 (T1142I-CFTR; T1142I): 1490 ± 70 nM
percent inhibition of current, individual cell (pig WT-CFTR; 50 nM Inh-172): 2.0 and 4.0 and 8.0 and 15.0 and 7.0
inhibition at 0.05 µM (pig WT-CFTR; 50 nM Inh-172, read-out: percent inhibition of current, Mean): 7.2%
percent inhibition of current, individual cell (pig WT-CFTR; 100 nM Inh-172): 2.0 and 18.0 and 5.0 and 13.0 and 6.0 and 7.0
inhibition at 0.1 µM (pig WT-CFTR; [6]): 8.1%
percent inhibition of current, individual cell (pig WT-CFTR; 500 nM Inh-172): 31.0 and 27.0 and 25.0 and 23.0
inhibition at 0.5 µM (pig WT-CFTR; [3]): 25.9%
inhibition at 0.5 µM (pig WT-CFTR; [4]): 22%
percent inhibition of current, individual cell (pig WT-CFTR; 1000 nM Inh-172): 33.0 and 38.0 and 40.0 and 21.0 and 41.0 and 44.0 and 39.0 and 36.0 and 29.0 and 42.0
inhibition at 1 µM (pig WT-CFTR; [7]): 36.3%
percent inhibition of current, individual cell (pig WT-CFTR; 5000 nM Inh-172): 62.0 and 70.0 and 59.0 and 77.0 and 72.0 and 79.0
inhibition at 5 µM (pig WT-CFTR; [8]): 68.1%
inhibition at 5 µM (pig WT-CFTR; [9]): 67%
percent inhibition of current, individual cell (pig WT-CFTR; 10000 nM Inh-172): 83.0 and 79.0 and 82.0 and 73.0 and 80.0 and 93.0
inhibition at 10 µM (pig WT-CFTR; [10]): 82.7%
inhibition at 10 µM (pig WT-CFTR; [5]): 89%
Hill Coefficient (pig WT-CFTR; Pig WT): 0.83 ± 0.04
IC50 (pig WT-CFTR; Pig WT): 1860 ± 120 nM
IC50 of pig WT-CFTR higher than human WT-CFTR (pig WT-CFTR; cho cells inside-out patch): ~ 20 fold
percent inhibition of current, individual cell (K95A-CFTR; 100 nM Inh-172): 10.0 and 13.0 and 19.0 and 9.0 and 7.0 and 15.0
inhibition at 0.1 µM (K95A-CFTR; [6]): 12.2%
inhibition at 0.5 µM (K95A-CFTR; 0.5 µM Inh-172, read-out: K95A-CFTR current inhibited): ~40%
percent inhibition of current, individual cell (K95A-CFTR; 500 nM Inh-172): 23.0 and 38.0 and 46.0 and 31.0 and 29.0 and 42.0
inhibition at 0.5 µM (K95A-CFTR; [3]): 34.8%
percent inhibition of current, individual cell (K95A-CFTR; 1000 nM Inh-172): 58.0 and 62.0 and 47.0 and 59.0
inhibition at 1 µM (K95A-CFTR; [7]): 55.8%
inhibition at 1 µM (K95A-CFTR; [11]): 51%
percent inhibition of current, individual cell (K95A-CFTR; 5000 nM Inh-172): 88.0 and 84.0 and 81.0 and 85.0
inhibition at 5 µM (K95A-CFTR; [8]): 84.2%
inhibition at 5 µM (K95A-CFTR; [9]): 78%
percent inhibition of current, individual cell (K95A-CFTR; 10000 nM Inh-172): 95.0 and 94.0 and 93.0 and 90.0
inhibition at 10 µM (K95A-CFTR; [10]): 92.3%
inhibition at 10 µM (K95A-CFTR; [5]): 89%
Hill Coefficient (K95A-CFTR; K95A): 0.98 ± 0.05
IC50 (K95A-CFTR; K95A): 850 ± 50 nM
IC50 (K95A-CFTR; K95A, earlier manuscript version, peer review file): 852 nM
increase of IC50 by K95A mutation vs WT (K95A-CFTR; cho cells inside-out patch): 10 fold
percent inhibition of current, individual cell (M348K-CFTR; 100 nM Inh-172): 10.0 and 17.0 and 1.0 and 23.0
inhibition at 0.1 µM (M348K-CFTR; [6]): 12.8%
percent inhibition of current, individual cell (M348K-CFTR; 250 nM Inh-172): 31.0 and 36.0 and 35.0
inhibition at 0.25 µM (M348K-CFTR; 250 nM Inh-172, read-out: percent inhibition of current, Mean): 35.3%
inhibition at 0.25 µM (M348K-CFTR; 250 nM Inh-172, read-out: percent inhibition of current, individual cell): 39%
percent inhibition of current, individual cell (M348K-CFTR; 500 nM Inh-172): 50.0 and 41.0 and 62.0 and 56.0 and 63.0
inhibition at 0.5 µM (M348K-CFTR; [3]): 54.4%
percent inhibition of current, individual cell (M348K-CFTR; 1000 nM Inh-172): 61.0 and 64.0 and 60.0
inhibition at 1 µM (M348K-CFTR; [7]): 64.2%
inhibition at 1 µM (M348K-CFTR; [11]): 68%
percent inhibition of current, individual cell (M348K-CFTR; 5000 nM Inh-172): 94.0 and 84.0 and 81.0
inhibition at 5 µM (M348K-CFTR; [8]): 86.6%
inhibition at 5 µM (M348K-CFTR; [9]): 90%
percent inhibition of current, individual cell (M348K-CFTR; 10000 nM Inh-172): 89.0 and 83.0
inhibition at 10 µM (M348K-CFTR; [10]): 88%
inhibition at 10 µM (M348K-CFTR; [5]): 92%
Hill Coefficient (M348K-CFTR; M348K): 0.90 ± 0.10
IC50 (M348K-CFTR; M348K): 520 ± 60 nM
